From US20030236218A1, “Aryl phosphate derivatives of d4T with selective activity against adenovirus and HIV” (priority 2002, published 2003)

Key:
[1] = Stability in plasma in the presence of selective esterase inhibitors; settings: 250 μM
[2] = Hydrolysis rate in alkali conditions; assay type: physicochemical
Method: Statistical analysis. Each drug was tested at 6-7 different concentrations ranging from 0.0001 μM to 100 μM. Each assay was set up in triplicate wells and repeated 1-3 times. An IC50 value was calculated from each set of triplicate wells using nonlinear regression modeling of the exponential form of the linearized equation (Statview, SAS Institute, Inc., Cary, N.C.). Hydrolysis rates were determined by fitting single exponential decay equations to the disappearance of the compound in alkali conditions (all R^2 values greater than 0.85). The IC50 values obtained were correlated to the log transformed hydrolysis rate constants by fitting a linear model (JMP Software, SAS Institute Inc., Cary, N.C.). P-values less than 0.05 were deemed significant.

[3] = dogs; twice daily hard gelatin capsules 25 mg/kg -100 mg/kg; cumulative dose levels as high as 8.4 g/kg; cited from earlier work
[4] = rats, cited from earlier work
[5] = Stability in simulated intestinal fluid; assay type: in vitro ADME; settings: 100 μM, 37° C.
Method: The spiked fluids were then placed in a 37° C. water bath. At a predetermined time, 100 μI aliquots of the spiked gastric or intestinal fluid were extracted by adding 400 μl of acetone as discussed above.

skin fibroblasts = assay: Cytotoxicity in skin fibroblasts (plaque assay); assay type: cell-based; settings: ADV plaque formation assay
Method: Plaque formation assays. Plaque assays were used to examine the activity of the compounds against non-HIV viruses. The skin fibroblast cell line SF (ATCC CRL-2097) was used as a target for AD169, Adenovirus Type 5. […] cell line (ATCC CCL-81) was used as a target for HSV HF and G. The HEP-2 cell line (ATCC CCL-23) was used as a target for the RSV strain Long. These cell lines were cultured at 1×10^5 cells/well in 24-well (all but ECHO 30-infected SF) or 6-well (ECHO 30-infected SF) tissue culture plates with 0.9% methylcellulose or 0.4% SeaPlaque agarose semisolid support. Minimum Essential Medium (MEM) with Earle's salts (Gibco), L-glutamine, non-essential amino acids, 2% heat-inactivated fetal bovine serum, 1% penicillin/streptomycin, and 0.05% gentamicin served as the culture medium. The incubation times were 3 days for HF, G, ECHO 30, and Long; and 7 days for AD169 and Adenovirus Type 5. […] Percent inhibition of plaque formation was calculated by comparing the plaque numbers from the test substance-treated infected cells with the plaque numbers from untreated infected cells (i.e., virus controls). The IC50 values were determined using the Statview statistics program (SAS Institute, Inc., Cary, N.C.).

COC(=O)C(C)NP(=O)(OC[C@@H]1C=C[C@H](n2cc(C)c(=O)[nH]c2=O)O1)Oc1ccc(Br)cc1 (stereo partly shown) [Compound 113, 5′-[4-Bromophenyl methoxylaninylphosphate]-2′, 3′-didehydro-3′-deoxy thymidine]
mean percent hydrolysis in plasma ([1]; EDTA (1 mM), arylesterase, 5 min): 99% | mean percent hydrolysis in plasma ([1]; EDTA (1 mM), arylesterase, 10 min): 100% | mean percent hydrolysis in plasma ([1]; EDTA (1 mM), arylesterase, 15 min): 100% | mean percent hydrolysis in plasma ([1]; EDTA (1 mM), arylesterase, 30 min): 100% | mean percent hydrolysis in plasma ([1]; EDTA (1 mM), arylesterase, 60 min): 100% | mean percent hydrolysis in plasma ([1]; EDTA (1 mM), arylesterase, 120 min): 100% | mean percent hydrolysis in plasma ([1]; No inhibitor, 5 min): 95% | mean percent hydrolysis in plasma ([1]; No inhibitor, 10 min): 98% | mean percent hydrolysis in plasma ([1]; No inhibitor, 15 min): 99% | mean percent hydrolysis in plasma ([1]; No inhibitor, 30 min): 100% | mean percent hydrolysis in plasma ([1]; No inhibitor, 60 min): 100% | mean percent hydrolysis in plasma ([1]; No inhibitor, 120 min): 100% | mean percent hydrolysis in plasma ([1]; Paraoxon (0.1 mM), cholinesterase & carboxylesterase, 5 min): 0% | mean percent hydrolysis in plasma ([1]; Paraoxon (0.1 mM), cholinesterase & carboxylesterase, 10 min): 2% | mean percent hydrolysis in plasma ([1]; Paraoxon (0.1 mM), cholinesterase & carboxylesterase, 15 min): 2% | mean percent hydrolysis in plasma ([1]; Paraoxon (0.1 mM), cholinesterase & carboxylesterase, 30 min): 2% | mean percent hydrolysis in plasma ([1]; Paraoxon (0.1 mM), cholinesterase & carboxylesterase, 60 min): 3% | mean percent hydrolysis in plasma ([1]; Paraoxon (0.1 mM), cholinesterase & carboxylesterase, 120 min): 24% | mean percent hydrolysis in plasma ([1]; Physostigmine (0.1 mM), cholinesterase, 5 min): 43% | mean percent hydrolysis in plasma ([1]; Physostigmine (0.1 mM), cholinesterase, 10 min): 65% | mean percent hydrolysis in plasma ([1]; Physostigmine (0.1 mM), cholinesterase, 15 min): 76% | mean percent hydrolysis in plasma ([1]; Physostigmine (0.1 mM), cholinesterase, 30 min): 89% | mean percent hydrolysis in plasma ([1]; Physostigmine (0.1 mM), cholinesterase, 60 min): 100% | mean percent hydrolysis in plasma ([1]; Physostigmine (0.1 mM), cholinesterase, 120 min): 100% | Hydrolysis Rate [2]: 0.0210 min⁻¹ | tolerability of four-week treatment course [3]: very well tolerated | toxicity on daily administration ([4]; intraperitoneally or orally for up to 8 consecutive weeks, cumulative dose levels as high as 6.4 g/kg): not associated with any detectable toxicity | acute or subacute toxicity ([4]; single intraperitoneal or oral bolus dose levels as high as 500 mg/kg): very well tolerated without any detectable acute or subacute toxicity | stability in intestinal fluid (in words) [5]: not stable | decomposed in intestinal fluid ([5]; within 2 hours): approximately 94% | cytotoxicity (in words) (skin fibroblasts): without any evidence of cytotoxicity even at 100 μM
